Tests used:
SK-OV-3 = experiment: Antiproliferative activity against human SKOV3 cells incubated for 48 hrs by MTT assay; type: functional, cell-based; conditions: SK-OV-3, 48 h
BGC-823 = experiment: Antiproliferative activity against human BGC-823 cells incubated for 48 hrs by MTT assay; type: functional, cell-based; conditions: BGC-823, 48 h
MGC-803 = experiment: Antiproliferative activity against human MGC-803 cells incubated for 48 hrs by MTT assay; type: functional, cell-based; conditions: MGC-803, 48 h
K562/A02 [1] = experiment: Antiproliferative activity against human K562/A02 cells incubated for 48 hrs by MTT assay; type: functional, cell-based; conditions: K562/A02, 48 h
A549 [2] = experiment: Antiproliferative activity against human A549 cells incubated for 24 hrs by MTT assay; type: functional, cell-based; conditions: A549, 24 h
HeLa [3] = experiment: Antiproliferative activity against human HeLa cells incubated for 24 hrs by MTT assay; type: functional, cell-based
[4] = Selectivity ratio of IC50 for human L02 cells to IC50 for human Calu-1 cells; type: toxicity; conditions: L02 cells / Calu-1 cells, read-out: Ratio IC50
[5] = Selectivity ratio of IC50 for human L02 cells to IC50 for human HeLa cells; type: toxicity; conditions: read-out: Ratio IC50
[6] = Selectivity ratio of IC50 for African green monkey Vero cells to IC50 for human A549 cells; type: toxicity; conditions: read-out: Ratio IC50
[7] = Selectivity ratio of IC50 for African green monkey Vero cells to IC50 for human Calu-1 cells; type: toxicity; conditions: Vero cells / Calu-1 cells, read-out: Ratio IC50
Calu-1 = experiment: Antiproliferative activity against human Calu-1 cells incubated for 24 hrs by MTT assay; type: functional, cell-based; conditions: Calu-1, 24 h
[8] = Selectivity ratio of IC50 for African green monkey Vero cells to IC50 for human HeLa cells; type: toxicity; conditions: read-out: Ratio IC50
Vero = experiment: Cytotoxicity against African green monkey Vero cells; type: cell-based; conditions: Chlorocebus sabaeus
L02 [9] = experiment: Cytotoxicity against human L02 cells; type: cell-based
[10] = Selectivity ratio of IC50 for human L02 cells to IC50 for human A549 cells; type: toxicity; conditions: read-out: Ratio IC50
A549 [11] = experiment: Antiproliferative activity against human A549 cells incubated for 48 hrs by MTT assay; type: functional, cell-based; conditions: A549, 48 h
MCF7 [12] = experiment: Antiproliferative activity against human MCF7 cells incubated for 48 hrs by MTT assay; type: functional, cell-based; conditions: MCF7, 48 h
SW480 [13] = experiment: Antiproliferative activity against human SW480 cells incubated for 48 hrs by MTT assay; type: functional, cell-based; conditions: SW480, 48 h
SMMC-7721 [14] = experiment: Antiproliferative activity against human SMMC-7721 cells incubated for 48 hrs by MTT assay; type: functional, cell-based; conditions: SMMC-7721, 48 h
HL-60 [15] = experiment: Antiproliferative activity against human HL-60 cells incubated for 48 hrs by MTT assay; type: functional, cell-based; conditions: HL-60, 48 h
SMMC-7721 [16] = experiment: Potency index, ratio of cisplatin IC50 to test compound IC50 for antiproliferative activity against human SMMC7721 cells; type: functional
A549 [17] = experiment: Potency index, ratio of cisplatin IC50 to test compound IC50 for antiproliferative activity against human A549 cells; type: functional
MCF7 [18] = experiment: Potency index, ratio of cisplatin IC50 to test compound IC50 for antiproliferative activity against human MCF7 cells; type: functional
SW480 [19] = experiment: Potency index, ratio of cisplatin IC50 to test compound IC50 for antiproliferative activity against human SW480 cells; type: functional
HL-60 [20] = experiment: Potency index, ratio of cisplatin IC50 to test compound IC50 for antiproliferative activity against human HL-60 cells; type: functional
K562 [21] = experiment: Cytotoxicity against human K562 cells by SRB assay; type: functional, cell-based
K562/A02 [22] = experiment: Cytotoxicity against human K562/A02 cells by SRB assay; type: functional, cell-based
HeLa [23] = experiment: Cytotoxicity against human HeLa cells by MTT assay; type: functional, cell-based
KB = experiment: Cytotoxicity against human KB cells by MTT assay; type: functional, cell-based
[24] = Cytotoxicity against human KBV cells by MTT assay; type: functional, cell-based
HeLa [25] = experiment: Antiproliferative activity against human HeLa cells incubated for 48 hrs by MTT assay; type: functional, cell-based
K562 [26] = experiment: Antiproliferative activity against human K562 cells incubated for 48 hrs by MTT assay; type: functional, cell-based; conditions: K562, 48 h
K562/Adr [27] = experiment: Antiproliferative activity against human K562/ADM cells incubated for 48 hrs by MTT assay; type: functional, cell-based
K562/Adr [28] = experiment: Potency index, ratio of etoposide IC50 to test compound IC50 for antiproliferative activity against human K562/ADM cells; type: functional
HepG2 = experiment: Antiproliferative activity against human HepG2 cells incubated for 48 hrs by MTT assay; type: functional, cell-based; conditions: HepG2, 48 h
MCF7 [29] = experiment: Antiproliferative activity against human MCF7 cells incubated for 24 hrs by MTT assay; type: functional, cell-based; conditions: MCF7, 24 h
[30] = Cytotoxicity against PBMC (unknown origin) incubated for 24 hrs by CCK8 assay
L02 [31] = experiment: Cytotoxicity against human L02 cells incubated for 24 hrs by CCK8 assay; type: functional, cell-based; conditions: L02, 24 h
L02 [32] = experiment: Cytotoxicity against human HL7702 cells incubated for 48 hrs by MTT assay; type: cell-based; conditions: L02, 48 h

COc1cc(C(=O)/C=C/c2ccc(F)cc2)ccc1OCc1cn([C@@H]2c3cc4c(cc3[C@@H](c3cc(OC)c(OC)c(OC)c3)[C@H]3C(=O)OC[C@@H]32)OCO4)nn1
IC50 (SK-OV-3): 0.53 µM | IC50 (BGC-823): 0.53 µM | IC50 (MGC-803): 0.53 µM | IC50 (K562/A02 [1]): 0.53 µM

COc1cc([C@@H]2c3cc4c(cc3[C@H](OC(=O)CCCCC3CCSC(c5ccc(C)cc5)S3)[C@H]3COC(=O)[C@H]23)OCO4)cc(OC)c1OC (stereo partly specified)
IC50 (A549 [2]): 2.68 µM | IC50 (HeLa [3]): 2.68 µM | selectivity ratio [4]: ≥ 9.7 | selectivity ratio [5]: ≥ 9.7 | selectivity ratio [6]: ≥ 9.7 | selectivity ratio [7]: ≥ 9.7 | IC50 (Calu-1): 2.68 µM | selectivity ratio [8]: ≥ 9.7 | IC50 (Vero): > 93.8 µM | IC50 (L02 [9]): > 93.8 µM | selectivity ratio [10]: ≥ 9.7

CCCC(=O)O[C@@H]1[C@@H](OC(=O)CCC)[C@@H](O[C@@H]2c3cc4c(cc3[C@@H](c3cc(OC)c(OC)c(OC)c3)[C@H]3C(=O)OC[C@@H]32)OCO4)OC[C@H]1OC(=O)CCC
IC50 (A549 [11]): > 2.9 µM | IC50 (MCF7 [12]): > 2.9 µM | IC50 (SW480 [13]): > 2.9 µM | IC50 (SMMC-7721 [14]): > 2.9 µM | IC50 (HL-60 [15]): 0.14 µM | Ratio IC50 (SMMC-7721 [16]): 1.9 | Ratio IC50 (A549 [17]): 1.9 | Ratio IC50 (MCF7 [18]): 1.9 | Ratio IC50 (SW480 [19]): 1.9

COc1cc([C@@H]2c3cc4c(cc3[C@@H](n3cc(COC[C@H]5O[C@@H](OCc6cn([C@@H]7c8cc9c(cc8[C@@H](c8cc(OC)c(O)c(OC)c8)[C@H]8C(=O)OC[C@@H]87)OCO9)nn6)[C@H](OC(C)=O)[C@@H](OC(C)=O)[C@@H]5OC(C)=O)nn3)[C@H]3COC(=O)[C@H]23)OCO4)cc(OC)c1O
IC50 (A549 [11]): 14 µM | IC50 (MCF7 [12]): 14 µM | IC50 (SW480 [13]): 14 µM | IC50 (SMMC-7721 [14]): 14 µM | IC50 (HL-60 [15]): 14 µM | Ratio IC50 (SMMC-7721 [16]): 2.8 | Ratio IC50 (A549 [17]): 2.8 | Ratio IC50 (MCF7 [18]): 2.8 | Ratio IC50 (SW480 [19]): 2.8 | Ratio IC50 (HL-60 [20]): 2.8

CCCC(=O)O[C@@H]1[C@@H](OC(=O)CCC)[C@H](OCc2cn([C@@H]3c4cc5c(cc4[C@@H](c4cc(OC)c(O)c(OC)c4)[C@H]4C(=O)OC[C@@H]43)OCO5)nn2)O[C@H](COCc2cn([C@@H]3c4cc5c(cc4[C@@H](c4cc(OC)c(O)c(OC)c4)[C@H]4C(=O)OC[C@@H]43)OCO5)nn2)[C@H]1OC(=O)CCC
IC50 (A549 [11]): 14 µM | IC50 (MCF7 [12]): 14 µM | IC50 (SW480 [13]): 14 µM | IC50 (SMMC-7721 [14]): 14 µM | IC50 (HL-60 [15]): 14 µM | Ratio IC50 (SMMC-7721 [16]): 2.8 | Ratio IC50 (A549 [17]): 2.8 | Ratio IC50 (MCF7 [18]): 2.8 | Ratio IC50 (SW480 [19]): 2.8 | Ratio IC50 (HL-60 [20]): 2.8

COC(=O)c1cccc2c1c(C(=O)C(=O)N[C@@H]1c3cc4c(cc3[C@@H](c3cc(OC)c(OC)c(OC)c3)[C@H]3C(=O)OC[C@@H]31)OCO4)cn2C(=O)c1ccccc1
IC50 (K562 [21]): 0.15 µM | IC50 (K562/A02 [22]): 0.15 µM | IC50 (HeLa [23]): 0.15 µM | IC50 (KB): 3.16 µM | IC50 [24]: 0.15 µM

COc1cc([C@@H]2c3cc4c(cc3[C@@H](n3cnc([N+](=O)[O-])c3)[C@H]3COC(=O)[C@H]23)OCO4)cc(OC)c1O
IC50 (HeLa [25]): 8.12 µM | IC50 (K562 [26]): 4.16 µM | IC50 (K562/Adr [27]): 4.16 µM | Ratio IC50 (K562/Adr [28]): 18.4

COc1cc([C@@H]2c3cc4c(cc3[C@H](O)[C@H]3COC(=O)[C@H]23)OCO4)cc(OC)c1OC [PODOFILOX]
IC50 (A549 [11]): 4.31 µM | IC50 (HepG2): 4.31 µM | IC50 (BGC-823): 4.31 µM | IC50 (A549 [2]): 2.13 µM | IC50 (MCF7 [29]): 2.13 µM | IC50 (HeLa [3]): 2.13 µM | IC50 [30]: 5.02 µM | IC50 (L02 [31]): 2.97 µM | IC50 (L02 [32]): 4.31 µM | IC50 (Calu-1): 2.68 µM | IC50 (Vero): 1.04 µM | IC50 (L02 [9]): 3.16 µM

CC[C@]1(O)C[C@H]2CN(CCc3c([nH]c4ccccc34)[C@@](C(=O)OC)(c3cc4c(cc3OC)N(C=O)[C@H]3[C@@](O)(C(=O)OC)[C@H](OC(C)=O)[C@]5(CC)C=CCN6CC[C@]43[C@@H]65)C2)C1 [VINCRISTINE]
IC50 [24]: 50.3 µM

From ChEMBL document CHEMBL4818987, “Recent advances of podophyllotoxin/epipodophyllotoxin hybrids in anticancer activity, mode of action, and structure-activity relationship: An update (2010-2020)” (Eur J Med Chem, 2020)
